In ChEMBL document CHEMBL2385069, “Thiourea derivatives incorporating a hippuric acid moiety: synthesis and evaluation of antibacterial and antifungal activities” (2013):
Values after ≈ are worked out from the molar mass of the structure shown.

Legend:
Priestia megaterium [1] = assay: Antibacterial activity against Bacillus megaterium ATCC 9885 assessed as diameter of inhibition zone at 0.5 mg/ml after 24 hrs by agar well diffusion method; format: functional; conditions: ATCC 9885, 24 h, read-out: DIZ
Micrococcus luteus [2] = assay: Antibacterial activity against Sarcina lutea assessed as diameter of inhibition zone at 0.5 mg/ml after 24 hrs by agar well diffusion method; format: functional; conditions: read-out: DIZ
Proteus vulgaris [3] = assay: Antibacterial activity against Proteus vulgaris assessed as diameter of inhibition zone at 0.5 mg/ml after 24 hrs by agar well diffusion method; format: functional; conditions: read-out: DIZ
Proteus vulgaris [4] = assay: Antibacterial activity against Proteus vulgaris after 24 hrs by two fold serial dilution technique; format: functional
Micrococcus luteus [5] = assay: Antibacterial activity against Sarcina lutea after 24 hrs by two fold serial dilution technique; format: functional
Escherichia coli = assay: Antibacterial activity against Escherichia coli ATCC 25922 after 24 hrs by two fold serial dilution technique; format: functional; conditions: ATCC 25922, 24 h
Klebsiella pneumoniae [6] = assay: Antibacterial activity against Klebsiella pneumoniae ATCC 13883 after 24 hrs by two fold serial dilution technique; format: functional; conditions: ATCC 13883, 24 h
Priestia megaterium [7] = assay: Antibacterial activity against Bacillus megaterium ATCC 9885 after 24 hrs by two fold serial dilution technique; format: functional; conditions: ATCC 9885, 24 h
Bacillus subtilis [8] = assay: Antibacterial activity against Bacillus subtilis ATCC 6633 after 24 hrs by two fold serial dilution technique; format: functional; conditions: ATCC 6633, 24 h
Staphylococcus aureus = assay: microbe, parasite or virus in culture; conditions: ATCC 29213, 24 h, read-out: DIZ
Description: Antibacterial activity against Staphylococcus aureus ATCC 29213 assessed as diameter of inhibition zone at 0.5 mg/ml after 24 hrs by agar well diffusion method

Bacillus subtilis [9] = assay: microbe, parasite or virus in culture; conditions: ATCC 6633, 24 h, read-out: DIZ
Description: Antibacterial activity against Bacillus subtilis ATCC 6633 assessed as diameter of inhibition zone at 0.5 mg/ml after 24 hrs by agar well diffusion method

Klebsiella pneumoniae [10] = assay: microbe, parasite or virus in culture; conditions: ATCC 13883, 24 h, read-out: DIZ
Description: Antibacterial activity against Klebsiella pneumoniae ATCC 13883 assessed as diameter of inhibition zone at 0.5 mg/ml after 24 hrs by agar well diffusion method

Pseudomonas aeruginosa = assay: microbe, parasite or virus in culture; conditions: ATCC 27953, 24 h, read-out: DIZ
Description: Antibacterial activity against Pseudomonas aeruginosa ATCC 27953 assessed as diameter of inhibition zone at 0.5 mg/ml after 24 hrs by agar well diffusion method

Saccharomyces cerevisiae [11] = assay: Antifungal activity against Saccharomyces cerevisiae assessed as diameter of inhibition zone at 0.5 mg/ml after 24 hrs by agar well diffusion method; format: functional; conditions: read-out: DIZ
Candida albicans [12] = assay: Antifungal activity against Candida albicans NRRLY-477 assessed as diameter of inhibition zone at 0.5 mg/ml after 24 hrs by agar well diffusion method; format: functional; conditions: NRRLY-477, 24 h, read-out: DIZ
Candida albicans [13] = assay: Antifungal activity against Candida albicans NRRLY-477 after 24 hrs by two fold serial dilution technique; format: functional; conditions: NRRLY-477, 24 h
Saccharomyces cerevisiae [14] = assay: Antifungal activity against Saccharomyces cerevisiae after 24 hrs by two fold serial dilution technique; format: functional

SMILES | zone of inhibition at 500 µg/mL (Priestia megaterium [1]) | zone of inhibition at 500 µg/mL (Micrococcus luteus [2]) | zone of inhibition at 500 µg/mL (Proteus vulgaris [3]) | MIC (Proteus vulgaris [4]) | MIC (Micrococcus luteus [5]) | MIC (Escherichia coli) | MIC (Klebsiella pneumoniae [6]) | MIC (Priestia megaterium [7]) | MIC (Bacillus subtilis [8]) | zone of inhibition at 500 µg/mL (Staphylococcus aureus) | zone of inhibition at 500 µg/mL (Bacillus subtilis [9]) | zone of inhibition at 500 µg/mL (Klebsiella pneumoniae [10]) | zone of inhibition at 500 µg/mL (Pseudomonas aeruginosa) | zone of inhibition at 500 µg/mL (Saccharomyces cerevisiae [11]) | zone of inhibition at 500 µg/mL (Candida albicans [12]) | MIC (Candida albicans [13]) | MIC (Saccharomyces cerevisiae [14])
O=C(O)c1cn(C2CC2)c2cc(N3CCNCC3)c(F)cc2c1=O [CIPROFLOXACIN] | 24 mm | 20 mm | 23 mm | 12.5 µg/mL (≈ 37.7 µM) | 12.5 µg/mL (≈ 37.7 µM) | 12.5 µg/mL (≈ 37.7 µM) | 12.5 µg/mL (≈ 37.7 µM) | 6.25 µg/mL (≈ 18.9 µM) | 6.25 µg/mL (≈ 18.9 µM) | 20 mm | 22 mm | 25 mm | 24 mm | – | – | – | –
CC(=O)N1CCN(c2ccc(OCC3COC(Cn4ccnc4)(c4ccc(Cl)cc4Cl)O3)cc2)CC1 (configuration not stated) [KETOCONAZOLE] | – | – | – | – | – | – | – | – | – | – | – | – | – | 23 mm | 22 mm | 6.25 µg/mL (≈ 11.8 µM) | 3.12 µg/mL (≈ 5.87 µM)
